According to patent publication EP2262764B1, “NOVEL N-BENZYLAMIDE SUBSTITUTED DERIVATIVES OF 2-(ACYLAMIDO)ACETIC ACID AND 2-(ACYLAMIDO)PROPIONIC ACIDS: POTENT NEUROLOGICAL AGENTS” (The University of North Carolina At Chapel Hill, priority 2008, dated 2009):
Like-named read-outs stand apart in the source and are kept apart here.

Columns and labels:
[1] = system: maximal electroshock (MES)-induced seizures; assay: maximal electroshock seizure (MES) test, mice ip; conditions: for ED50: Mus musculus, ip
Text: The structure-activity relationship of functionalized amino acids (1).

[2] = system: maximal electroshock (MES)-induced seizures; assay: maximal electroshock seizure (MES) test, rat po; conditions: for ED50: Rattus norvegicus, po; for MES, ED50 / PI: Rat (po); for PI: PI = TD50/ED50
[3] = system: neurologic toxicity; assay: neurologic toxicity (Tox), rat po; type: in vivo; conditions: for TD50: in vivo
[4] = system: bi-phasic licking response; assay: formalin test (0.5% formalin into hind paw, bi-phasic licking response); type: in vivo, mouse; conditions: dose 16.0 (CH2C≡CH/H), 8.0 (CH3/N3), 20.0 (CH2C≡CH/N3) mg/kg
Procedure: Compounds of the present invention were active in treating pain in a formalin test carried out in accordance with standard techniques, as described in S. Hunskaar et al., J. Neurosci. Methods 14: 69-76 (1985). Briefly, 0.5% formalin is injected into the mouse hind paw to elicit a bi-phasic licking response, where the first acute phase is thought to correspond to the direct stimulation of peripheral fibers and the second (inflammatory) phase is caused by the release of inflammatory mediators.

[5] = system: maximal electroshock (MES)-induced seizures; conditions: rat, in vivo, po
[6] = neurologic toxicity (Tox), rat po; type: in vivo; conditions: in vivo, time in hours in brackets
[7] = neurologic toxicity (Tox), rotorod test, mice ip; conditions: mouse, in vivo, ip, Tox, TD50, Mice (ip); time in hours in second brackets; [x; y] = between doses x and y
[8] = system: neurologic toxicity; assay: neurologic toxicity (Tox), rotorod test, mice ip; conditions: for TD50: mouse, in vivo, ip, Tox, TD50, Mice (ip)
[9] = system: 6 Hz seizure model; assay: 6 Hz seizure model, mice ip
[10] = read-out: MES, ED50, Rat (po), time in hours in brackets
[11] = read-out: MES, ED50, Rat (po), time of peak effect in hours in brackets in the cell
[12] = time in hours in brackets in the cell
[13] = read-out: MES, ED50, Mice (ip), time in hours in second brackets, [x, y] = between doses x and y
[14] = read-out: MES, ED50, Mice (ip), time of peak effect in hours in brackets in the cell
[15] = read-out: MES ED50, values of the running text, mice (ip)
[16] = Mice (ip), time in hours in second brackets, [x, y] = between doses x and y
[17] = rotorod test, time of peak effect in hours in brackets in the cell
[18] = read-out: MES, ED50, mice, intraperitoneally (ip), 95% confidence intervals in parentheses
[19] = time in hours in second brackets, [x, y] = between doses x and y

CC(=O)N[C@@H](C)C(=O)NCc1ccccc1 [(S)-4]
ED50 ([1]; read-out: MES, ED50): 550 mg/kg

CCC1(c2ccccc2)C(=O)NC(=O)NC1=O [Phenobarbital, reference compound]
ED50 [2, 10]: 9.1 mg/kg | ED50 [2, 11]: 9 mg/kg | Tox, TD50 ([3]; time in hours in brackets): 61 [0.5] mg/kg | Tox, TD50 [3, 12]: 61 [0.5] mg/kg | ED50 [1, 13]: 22 mg/kg | ED50 [1, 14]: 22 mg/kg

CCOCC(NC(C)=O)C(=O)NCc1ccccc1 (racemic) [(R,S)-10]
ED50 [1, 15]: 17 mg/kg

C#CCOC[C@@H](NC(C)=O)C(=O)NCc1ccccc1 [(R)-7, (R)-N-Benzyl-2-acetamido-3-(prop-2-ynyloxy)propanamide]
Area Under the Curve, % of Control ([4]; Acute phase): 48.42% | Area Under the Curve, Drug Tested ([4]; Acute phase): 142.9 | Area Under the Curve, % of Control ([4]; Inflammatory phase): 54.99% | Area Under the Curve, Drug Tested ([4]; Inflammatory phase): 468.3

CCCC(CCC)C(=O)O [valproate]
MES, ED50 ([2]; time in hours in brackets): 490 [0.5] mg/kg | ED50 ([2]; read-out: MES, ED50): 490 mg/kg | PI [5]: 0.6 | PI ([1]; Mice (ip), PI = TD50/ED50): 1.6 | PI ([1]; Mice (ip), protective index (TD50/ED50)): 1.6 | MES, ED50 [1, 16]: 270 [0.25] mg/kg | ED50 ([1]; read-out: MES, ED50): 270 mg/kg

C#CCOC[C@@H](NC(C)=O)C(=O)NCc1ccccc1 [(R)-7]
ED50 [2, 10]: 16 mg/kg | ED50 [2, 11]: 8 mg/kg | TD50 [6]: > 500 mg/kg | ED50 [1, 13]: 10 to 30 mg/kg | ED50 [1, 14]: 16 mg/kg | TD50 [7]: 30 to 100 mg/kg

C=CCOCC(NC(C)=O)C(=O)NCc1ccccc1 (racemic) [(R,S)-11]
ED50 [1, 15]: 30 to 100 mg/kg

C#CCOC[C@H](NC(C)=O)C(=O)NCc1ccc(N=[N+]=[N-])cc1 [(S)-8, (S)-N-(4-Azidobenzyl)-2-acetamido-3-(prop-2-ynyloxy)propanamide]
ED50 [2, 11]: > 30 mg/kg | TD50 [3, 12]: > 30 mg/kg | ED50 [1, 14]: 163 mg/kg | TD50 [8, 17]: > 300 mg/kg

COCC#Cc1ccc(CNC(=O)[C@@H](COC)NC(C)=O)cc1 [(R)-6, (R)-2-Acetamido-3-methoxy-N-(4-(3-methoxyprop-1-ynyl)benzyl)propanamide, reference compound]
PI [2]: > 30 | TD50 ([3]; time in hours in brackets): < 30 mg/kg | PI ([1]; Mice (ip), PI = TD50/ED50): ∼2.8 | ED50 [1, 13]: 3 to 10 mg/kg | ED50 [1, 18]: 26 mg/kg | Tox (death) ([8]; Mice (ip), observation printed in the Tox, TD50 column): Death at 100 | TD50 [8, 19]: 10 to 30 mg/kg

COC[C@@H](NC(C)=O)C(=O)NCc1ccc(COc2cccc(F)c2)cc1 [(R)-11]
ED50 [2, 10]: < 30 mg/kg | Tox, TD50 ([3]; time in hours in brackets): > 30 [0.25 to 4.0] mg/kg | PI ([1]; Mice (ip), PI = TD50/ED50): ∼2.8 | ED50 [1, 13]: 3 to 10 mg/kg | TD50 [7]: 10 to 30 mg/kg

CC(=O)NC(C)C(=O)NCc1ccccc1 (racemic) [(R,S)-4]
ED50 ([1]; read-out: MES, ED50): 77 mg/kg

C#CCOC[C@@H](NC(C)=O)C(=O)NCc1ccc(N=C=S)cc1 [(R)-9]
ED50 [2, 10]: > 30 mg/kg | ED50 [2, 11]: > 30 mg/kg | TD50 [6]: > 30 mg/kg | TD50 [7]: 68 mg/kg

COC[C@H](NC(C)=O)C(=O)NCc1ccc(OCc2cccc(F)c2)cc1 [(S)-3, (S)-2-Acetamido-N-(4-(3-fluorobenzyloxy)benzyl)-3-methoxypropanamide]
ED50 [1, 13]: > 300 mg/kg | TD50 [8, 19]: > 300 mg/kg

O=C1NC(=O)C(c2ccccc2)(c2ccccc2)N1 [phenytoin, reference compound]
MES, ED50 ([2]; time in hours in brackets): 30 [4] mg/kg | ED50 ([2]; read-out: MES, ED50): 30 mg/kg | TD50 [3, 12]: > 3000 mg/kg

C#CCOC[C@H](NC(C)=O)C(=O)NCc1ccccc1 [(S)-7, (S)-N-Benzyl-2-acetamido-3-(prop-2-ynyloxy)propanamide]
ED50 [2, 11]: > 30 mg/kg | TD50 [3, 12]: > 30 mg/kg | ED50 [1, 14]: > 300 mg/kg | TD50 [8, 17]: > 300 mg/kg

COC[C@@H](NC(C)=O)C(=O)NCc1ccc(C(F)(F)F)cc1 [(R)-10]
ED50 [2, 10]: < 30 mg/kg | TD50 [6]: > 30 mg/kg | PI ([1]; Mice (ip), PI = TD50/ED50): ∼3.1 | ED50 [1, 13]: 30 to 100 mg/kg | TD50 [7]: 100 to 300 mg/kg

COC[C@H](NC(C)=O)C(=O)NCc1ccc(N=[N+]=[N-])cc1 [(S)-5, (S)-N-(4-Azidobenzyl)-2-acetamido-3-methoxypropanamide, reference compound]
ED50 [2, 10]: > 30 mg/kg | ED50 ([9]; Mus musculus, ip, read-out: 6Hz, ED50): ~100 mg/kg | TD50 ([3]; time in hours in brackets): > 30 mg/kg | ED50 [1, 13]: 100 to 300 mg/kg | ED50 [1, 18]: > 25 mg/kg | Tox, TD50 [8, 16]: > 300 mg/kg

CC(=O)NC(C(=O)NCc1ccccc1)c1ccccc1 (racemic) [(R,S)-6]
ED50 ([1]; read-out: MES ED50): 32 mg/kg | ED50 ([1]; read-out: MES, ED50): 32 mg/kg

COC[C@@H](NC(C)=O)C(=O)NCc1ccc(OCc2cccc(F)c2)cc1 [(R)-3, (R)-2-Acetamido-N-(4-(3-fluorobenzyloxy)benzyl)-3-methoxypropanamide]
PI [2]: > 36 | 6Hz, ED50 (given as fraction) ([9]; Mice (ip), […], dose not given): 2/4 [0.25] | TD50 ([3]; time in hours in brackets): > 30 mg/kg | Tox, TD50 ([3]; time in hours in brackets): > 500 [0.5] mg/kg | PI ([1]; Mice (ip), PI = TD50/ED50): ∼9.3 | ED50 [1, 13]: 10 to 30 mg/kg

COC[C@@H](NC(C)=O)C(=O)NCc1ccc(N=[N+]=[N-])cc1 [(R)-5, (R)-N-(4-Azidobenzyl)-2-acetamido-3-methoxypropanamide, reference compound]
PI [2]: > 64 | ED50 [2, 10]: 3.9 mg/kg | TD50 ([3]; time in hours in brackets): > 250 mg/kg | Area Under the Curve, % of Control ([4]; Acute phase): 58.67% | Area Under the Curve, Drug Tested ([4]; Acute phase): 131.4 | Area Under the Curve, % of Control ([4]; Inflammatory phase): 106.22% | Area Under the Curve, Drug Tested ([4]; Inflammatory phase): 694.5 | TD50 [8, 19]: 46.2 mg/kg

C#CCOC[C@@H](NC(C)=O)C(=O)NCc1ccc(N=[N+]=[N-])cc1 [(R)-8]
ED50 [2, 10]: 45 mg/kg | ED50 [2, 11]: 12 mg/kg | TD50 [6]: > 500 mg/kg | ED50 ([1]; read-out: MES, ED50): 20 mg/kg | TD50 [7]: 100 to 300 mg/kg

CC(=O)N[C@H](C(=O)NCc1ccccc1)c1ccccc1 [(S)-6]
ED50 ([1]; read-out: MES, ED50): > 300 mg/kg

C#CCOC[C@H](NC(C)=O)C(=O)NCc1ccc(N=C=S)cc1 [(S)-9, (S)-N-(4-Isothiocyanatobenzyl)-2-acetamido-3-(prop-2-ynyloxy)propanamide]
ED50 ([1]; read-out: MES, ED50): > 300 mg/kg | TD50 [8, 17]: > 300 mg/kg

C#CCOC[C@@H](NC(C)=O)C(=O)NCc1ccc(N=[N+]=[N-])cc1 [(R)-8, (R)-N-(4-Azidobenzyl)-2-acetamido-3-(prop-2-ynyloxy)propanamide]
Area Under the Curve, % of Control ([4]; Acute phase): 58.28% | Area Under the Curve, Drug Tested ([4]; Acute phase): 119.9 | Area Under the Curve, % of Control ([4]; Inflammatory phase): 78.17% | Area Under the Curve, Drug Tested ([4]; Inflammatory phase): 414.3
